Like-named read-outs stand apart in the source and are kept apart here.
Target: T1, F508del (Homo sapiens, UniProt P13569, DEL508-508)
T1 construct: expressed in transfected cells
Assay: Protocol 2: FRET membrane potential optical assay (VIPR), identification of correction compounds
Format: cell-based
Description: Membrane potential optical methods for assaying F508del modulation properties of compounds.
These voltage sensitive assays are based on the change in fluorescence resonant energy transfer (FRET) between the membrane-soluble, voltage-sensitive dye, DiSBAC2(3), and a fluorescent phospholipid, CC2-DMPE, which is attached to the outer leaflet of the plasma membrane and acts as a FRET donor. Changes in membrane potential (Vm) cause the negatively charged DiSBAC2(3) to redistribute across the plasma membrane and the amount of energy transfer from CC2-DMPE changes accordingly. The changes in fluorescence emission were monitored using VIPR™ II, which is an integrated liquid handler and fluorescent detector designed to conduct cell-based screens in 96- or 384-well microtiter plates.
To identify small molecules that correct the trafficking defect associated with F508del; a single-addition HTS assay format was developed. The cells were incubated in serum-free medium for 16 hrs at 37° C. in the presence or absence (negative control) of test compound. As a positive control, cells plated in 384-well plates were incubated for 16 hrs at 27° C. to “temperature-correct” F508del. The cells were subsequently rinsed 3× with Krebs Ringers solution and loaded with the voltage-sensitive dyes. To activate F508del, 10 μM forskolin and the CFTR potentiator, genistein (20 μM), were added along with Cl^−-free medium to each well. The addition of Cl^−-free medium promoted Cl^− efflux in response to F508del activation and the resulting membrane depolarization was optically monitored using the FRET-based voltage-sensor dyes.
• Bath Solution #1: (in mM) NaCl 160, KCl 4.5, CaCl2 2, MgCl2 1, HEPES 10, pH 7.4 with NaOH. • Chloride-free bath solution: Chloride salts in Bath Solution #1 (above) are substituted with gluconate salts. • CC2-DMPE: Prepared as a 10 mM stock solution in DMSO and stored at −20° C. • DiSBAC2(3): Prepared as a 10 mM stock in DMSO and stored at −20° C. Cell Culture
NIH3T3 mouse fibroblasts stably expressing F508del are used for optical measurements of membrane potential. The cells are maintained at 37° C. in 5% CO2 and 90% humidity in Dulbecco's modified Eagle's medium supplemented with 2 mM glutamine, 10% fetal bovine serum, 1×NEAA, β-ME, 1× pen/strep, and 25 mM HEPES in 175 cm^2 culture flasks. For all optical assays, the cells were seeded at 30,000/well in 384-well matrigel-coated plates and cultured for 2 hrs at 37° C. before culturing at 27° C. for 24 hrs for the potentiator assay. For the correction assays, the cells are cultured at 27° C. or 37° C. with and without compounds for 16-24 hours.

[1] = F508del CFTR modulator activity, compounds of Table 1
[2] = F508del CFTR modulator activity, compounds of Table 1, read-out: EC30
[3] = Table 3, compounds of Table 1 as modulators of CFTR activity, protocol not stated

T1 sequence (P13569 with tags, fused parts or gaps DEL508-508): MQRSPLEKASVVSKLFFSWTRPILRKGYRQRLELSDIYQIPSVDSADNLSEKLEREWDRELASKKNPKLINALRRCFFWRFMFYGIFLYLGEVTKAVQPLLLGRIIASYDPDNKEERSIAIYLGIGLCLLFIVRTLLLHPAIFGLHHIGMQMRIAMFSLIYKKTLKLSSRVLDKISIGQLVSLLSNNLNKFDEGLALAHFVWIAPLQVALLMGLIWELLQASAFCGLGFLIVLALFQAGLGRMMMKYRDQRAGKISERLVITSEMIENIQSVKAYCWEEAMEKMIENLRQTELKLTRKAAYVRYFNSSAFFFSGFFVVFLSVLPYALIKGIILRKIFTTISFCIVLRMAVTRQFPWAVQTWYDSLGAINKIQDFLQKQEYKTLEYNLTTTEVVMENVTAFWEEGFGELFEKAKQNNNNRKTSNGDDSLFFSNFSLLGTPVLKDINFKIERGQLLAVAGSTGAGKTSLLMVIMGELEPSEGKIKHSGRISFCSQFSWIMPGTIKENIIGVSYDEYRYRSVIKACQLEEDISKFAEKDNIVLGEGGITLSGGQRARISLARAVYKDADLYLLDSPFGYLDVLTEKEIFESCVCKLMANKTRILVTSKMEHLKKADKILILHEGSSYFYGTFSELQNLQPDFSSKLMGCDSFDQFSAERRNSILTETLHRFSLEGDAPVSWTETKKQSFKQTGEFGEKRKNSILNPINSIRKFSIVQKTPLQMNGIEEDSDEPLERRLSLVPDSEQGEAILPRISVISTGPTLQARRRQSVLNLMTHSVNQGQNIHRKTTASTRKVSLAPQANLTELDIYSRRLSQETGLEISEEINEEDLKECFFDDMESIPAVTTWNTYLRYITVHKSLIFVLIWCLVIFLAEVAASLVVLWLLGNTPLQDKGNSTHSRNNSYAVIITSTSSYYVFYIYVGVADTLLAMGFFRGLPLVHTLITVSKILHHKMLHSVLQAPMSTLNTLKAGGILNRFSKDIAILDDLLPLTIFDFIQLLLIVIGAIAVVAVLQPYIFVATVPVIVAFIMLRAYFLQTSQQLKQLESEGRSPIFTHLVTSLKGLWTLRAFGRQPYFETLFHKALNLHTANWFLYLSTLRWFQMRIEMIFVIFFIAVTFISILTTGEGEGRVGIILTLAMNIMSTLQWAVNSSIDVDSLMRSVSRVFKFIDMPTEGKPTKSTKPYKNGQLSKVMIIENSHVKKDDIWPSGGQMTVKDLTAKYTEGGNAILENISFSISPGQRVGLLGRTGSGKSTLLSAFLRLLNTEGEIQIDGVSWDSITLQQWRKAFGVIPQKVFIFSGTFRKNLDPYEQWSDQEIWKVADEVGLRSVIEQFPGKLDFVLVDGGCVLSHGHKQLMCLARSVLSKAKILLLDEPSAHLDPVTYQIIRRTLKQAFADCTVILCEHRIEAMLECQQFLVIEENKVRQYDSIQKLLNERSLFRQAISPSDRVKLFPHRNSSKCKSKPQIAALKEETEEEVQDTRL

Structure (SMILES): CC(C)COc1cc(F)cc(-c2ccc(C(=O)NS(=O)(=O)c3cccc(N)n3)c(N3CC(C)CC34CCC4)n2)c1 (single isomer, unassigned) [Compound 2552, N-[(6-amino-2-pyridyl)sulfonyl]-6-(3-fluoro-5-isobutoxy-phenyl)-2-(6-methyl-8-azaspiro[3.4]octa N-8-yl)pyridine-3-carboxamide]
- EC30 [1]: +++ (“+++” means <3 uM)

Structure (SMILES): CC(C)(C)c1ccc(C(=O)NS(=O)(=O)c2cccc(N)n2)c(N2CCC(C3CC3)C2(C)C)n1 (single isomer, unassigned) [Compound 2577, N-[(6-amino-2-pyridyl)sulfonyl]-6-tert-butyl-2-(3-cyclopropyl-2,2-dimethyl-pyrrolidin-1-yl)pyridine-3-carboxamide]
- EC30 [1]: +++ (“+++” means <3 uM)

Structure (SMILES): Nc1cccc(S(=O)(=O)NC(=O)c2cccnc2N2CCCC(c3ccccc3)C2)n1 (single isomer, unassigned) [Compound 2615]
- EC30 [2]: 3000 to 10000 nM

Structure (SMILES): C[C@@H]1CN(c2nc(C(C)(C)C)c(C(O)C(O)C3CCCC3)cc2C(=O)NS(=O)(=O)c2cccc(N)n2)C(C)(C)C1 (single isomer, unassigned) [Compound 2661]
- EC30 [2]: < 3000 nM

Structure (SMILES): C[C@@H]1CN(c2nc(C3CCCCO3)ccc2C(=O)NS(=O)(=O)c2cccnc2N)C(C)(C)C1 (single isomer, unassigned) [Compound 2672]
- EC30 [2]: < 3000 nM

Structure (SMILES): CC1CN(c2ncccc2C(=O)NS(=O)(=O)c2cccc(N(C)C(C)C)n2)C(C)(C)C1 (single isomer, unassigned) [Compound 2724]
- EC30 [2]: < 3000 nM

Structure (SMILES): CC1CN(c2ncccc2C(=O)NS(=O)(=O)c2cccc(OC3CCC[C@@H]3C)n2)C(C)(C)C1 (stereo in doubt) [Compound 2109, N—[[6-[(1S,2S)-2-methylcyclopentoxy]-2-pyridyl]sulfonyl]-2-(2,2,4-trimethylpyrrolidin-1-yl)pyridine-3-carboxamide]
- EC30 [2]: < 3000 nM

Structure (SMILES): Cc1cc(C)c(Oc2nc(Cc3ccccc3)ccc2C(=O)NS(=O)(=O)c2cccc(N)n2)c(C)c1 [Compound 1, N-[(6-amino-2-pyridyl)sulfonyl]-6-benzyl-2-(2,4,6-trimethylphenoxy)pyridine-3-carboxamide]
- EC30 [3]: +++ (“+++” means <3 uM)

Structure (SMILES): Cc1cccc(C)c1Cn1c(C(=O)NS(=O)(=O)c2ccccc2)cc2ccccc21 [Compound 2, N-(benzenesulfonyl)-1-[(2,6-dimethylphenyl)methyl]indole-2-carboxamide]
- EC30 [3]: +++ (“+++” means <3 uM)

Structure (SMILES): CC(C)(C)c1cc(C(=O)NS(=O)(=O)c2ccccc2)n(Cc2cc(F)ccc2C(F)(F)F)n1 [Compound 3, 3-(tert-butyl)-1-(5-fluoro-2-(trifluoromethyl)benzyl)-N-(phenylsulfonyl)-1H-pyrazole-5-carboxamide]
- EC30 [3]: +++ (“+++” means <3 uM)

Structure (SMILES): COC(=O)C(C(=O)c1cc(C(C)(C)C)nn1Cc1c(C)cccc1C)S(=O)(=O)c1ccccc1 (stereo not shown) [Compound 4, Methyl 2-(benzenesulfonyl)-3-[5-tert-butyl-2-[(2,6-dimethylphenyl)methyl]pyrazol-3-yl]-3-oxo-propanoate]
- EC30 [3]: + (“+” means greater than 10 uM)

Structure (SMILES): Cc1ccc(-c2nc(C(C)(C)C)ccc2C(=O)NS(=O)(=O)c2cccc(N)c2)c(C)c1 [Compound 5, N-(3-aminophenyl)sulfonyl-6-tert-butyl-2-(2,4-dimethylphenyl)pyridine-3-carboxamide]
- EC30 [3]: ++ (“++” means between 3 uM and 10 uM)

Structure (SMILES): Cc1cc(C)c(CN2Cc3ccccc3C2C(=O)NS(=O)(=O)c2ccccc2)c(C)c1 (stereo not shown) [Compound 6, N-(benzenesulfonyl)-2-[(2,4,6-trimethylphenyl)methyl]isoindoline-1-carboxamide]
- EC30 [3]: +++ (“+++” means <3 uM)

Structure (SMILES): Cc1cc(C)c(CCn2nc(C(C)(C)C)cc2C(=O)NS(=O)(=O)c2cccc(N)c2)c(C)c1 [Compound 7, N-(3-aminophenyl)sulfonyl-5-tert-butyl-2-[2-(2,4,6-trimethylphenyl)ethyl]pyrazole-3-carboxamide]
- EC30 [3]: +++ (“+++” means <3 uM)

Structure (SMILES): Cc1cc(C)c(Oc2nc(-c3cccc(OCC(C)C)c3)ccc2C(=O)NS(=O)(=O)c2cccc(N)n2)c(C)c1 [Compound 8, N-[(6-amino-2-pyridyl)sulfonyl]-6-(3-isobutoxyphenyl)-2-(2,4,6-trimethylphenoxy)pyridine-3-carboxamide]
- EC30 [3]: +++ (“+++” means <3 uM)

Structure (SMILES): Cc1cc(C)c(Cn2c(C(=O)NS(=O)(=O)c3cccc(N)c3)cc3ccc(Cl)cc32)c(C)c1 [Compound 9, N-(3-aminophenyl)sulfonyl-6-chloro-1-[(2,4,6-trimethylphenyl)methyl]indole-2-carboxamide]
- EC30 [3]: +++ (“+++” means <3 uM)

Structure (SMILES): Cc1cc(C)c(Cn2c(C(=O)NS(=O)(=O)c3ccccc3)cc3ccc(Cl)cc32)c(C)c1 [Compound 10, N-(benzenesulfonyl)-6-chloro-1-[(2,4,6-trimethylphenyl)methyl]indole-2-carboxamide]
- EC30 [3]: +++ (“+++” means <3 uM)

Structure (SMILES): Cc1cc(C)c(Oc2nc(C(C)(C)C)ccc2C(=O)NS(=O)(=O)c2ccc(N)cc2)c(C)c1 [Compound 11, N-(4-aminophenyl)sulfonyl-6-tert-butyl-2-(2,4,6-trimethylphenoxy)pyridine-3-carboxamide]
- EC30 [3]: +++ (“+++” means <3 uM)

Structure (SMILES): Cc1cc(C)c(Cn2c(C(=O)NS(=O)(=O)c3ccccc3)cc3ccc(C)cc32)c(C)c1 [Compound 12, N-(benzenesulfonyl)-6-methyl-1-[(2,4,6-trimethylphenyl)methyl]indole-2-carboxamide]
- EC30 [3]: +++ (“+++” means <3 uM)

Structure (SMILES): Cc1cc(C)c(Oc2nc(C)ccc2C(=O)NS(=O)(=O)c2cccc(N)c2)c(C)c1 [Compound 13, N-(3-aminophenyl)sulfonyl-6-methyl-2-(2,4,6-trimethylphenoxy)pyridine-3-carboxamide]
- EC30 [3]: ++ (“++” means between 3 uM and 10 uM)

Structure (SMILES): Cc1cc(C)c(Oc2nc(-c3ccc4c(c3)OCCCO4)ccc2C(=O)NS(=O)(=O)c2cccc(N)n2)c(C)c1 [Compound 14, N-[(6-amino-2-pyridyl)sulfonyl]-6-(3,4-dihydro-2H-1,5-benzodioxepin-7-yl)-2-(2,4,6-trimethylphenoxy)pyridine-3-carboxamide]
- EC30 [3]: +++ (“+++” means <3 uM)

Structure (SMILES): Cc1ccc(Oc2nc3c(cc2C(=O)NS(=O)(=O)c2cccc(N)n2)CCCC3(C)C)c(C)c1 [Compound 15, N-[(6-amino-2-pyridyl)sulfonyl]-2-(2,4-dimethylphenoxy)-8,8-dimethyl-6,7-dihydro-5H-quinoline-3-carboxamide]
- EC30 [3]: +++ (“+++” means <3 uM)

Structure (SMILES): COc1cccc(S(=O)(=O)NC(=O)C2c3ccccc3CN2Cc2c(C)cc(C)cc2C)c1 (stereo not shown) [Compound 16, N-(3-methoxyphenyl)sulfonyl-2-[(2,4,6-trimethylphenyl)methyl]isoindoline-1-carboxamide]
- EC30 [3]: +++ (“+++” means <3 uM)

Structure (SMILES): COc1ccc(-c2ccc(C(=O)NS(=O)(=O)c3cccc(N)n3)c(Oc3c(C)cc(C)cc3C)n2)cc1 [Compound 17, N-[(6-amino-2-pyridyl)sulfonyl]-6-(4-methoxyphenyl)-2-(2,4,6-trimethylphenoxy)pyridine-3-carboxamide]
- EC30 [3]: +++ (“+++” means <3 uM)

Structure (SMILES): COc1ncccc1S(=O)(=O)NC(=O)c1cc2ccccc2n1Cc1c(C)cc(C)cc1C [Compound 18, N-[(2-methoxy-3-pyridyl)sulfonyl]-1-[(2,4,6-trimethylphenyl)methyl]indole-2-carboxamide]
- EC30 [3]: +++ (“+++” means <3 uM)

Source: US10758534B2 (Vertex Pharmaceuticals Incorporated, priority 2014, dated 2020)
